Data as given in the NIST ThermoML archive (doi:10.1021/acs.jced.5b00934).
Numbers after ± are expanded uncertainties.

Details: Liquid, Vibrating tube method

SMILES: CCC(C)O (stereo not drawn) [butan-2-ol]
- mass density (343.15 K, 47992 kPa): 801 ± 1 kg/m3
- mass density (343.15 K, 49990 kPa): 802.3 ± 1 kg/m3
- mass density (343.15 K, 52005 kPa): 803.6 ± 1 kg/m3
- mass density (343.15 K, 55047 kPa): 805.7 ± 1 kg/m3
- mass density (343.15 K, 57941 kPa): 807.5 ± 1 kg/m3
- mass density (343.15 K, 59985 kPa): 808.8 ± 1 kg/m3
- mass density (343.15 K, 61963 kPa): 810 ± 1 kg/m3
- mass density (343.15 K, 64974 kPa): 811.9 ± 1 kg/m3
- mass density (343.16 K, 2963 kPa): 763.4 ± 0.8 kg/m3
- mass density (343.16 K, 66132 kPa): 812.5 ± 1 kg/m3
- mass density (348.15 K, 99 kPa): 755 ± 0.8 kg/m3
- mass density (348.15 K, 293 kPa): 755.2 ± 0.8 kg/m3
- mass density (348.15 K, 632 kPa): 755.6 ± 0.8 kg/m3
- mass density (348.15 K, 926 kPa): 756 ± 0.8 kg/m3
- mass density (348.15 K, 1007 kPa): 756 ± 0.8 kg/m3
- mass density (348.15 K, 1961 kPa): 757.1 ± 0.8 kg/m3
- mass density (348.15 K, 2971 kPa): 758.2 ± 0.8 kg/m3
- mass density (348.15 K, 4887 kPa): 760.3 ± 0.8 kg/m3
- mass density (348.15 K, 6901 kPa): 762.5 ± 0.8 kg/m3
- mass density (348.15 K, 8976 kPa): 764.6 ± 0.9 kg/m3
- mass density (348.15 K, 10049 kPa): 765.7 ± 0.9 kg/m3
- mass density (348.15 K, 12159 kPa): 767.9 ± 0.9 kg/m3
- mass density (348.15 K, 15134 kPa): 770.8 ± 0.9 kg/m3
- mass density (348.15 K, 18029 kPa): 773.4 ± 0.9 kg/m3
- mass density (348.15 K, 20029 kPa): 775.3 ± 0.9 kg/m3
- mass density (348.15 K, 22105 kPa): 777.1 ± 0.9 kg/m3
- mass density (348.15 K, 24943 kPa): 779.5 ± 0.9 kg/m3
- mass density (348.15 K, 27937 kPa): 782.1 ± 0.9 kg/m3
- mass density (348.15 K, 29922 kPa): 783.7 ± 0.9 kg/m3
- mass density (348.15 K, 32051 kPa): 785.4 ± 0.9 kg/m3
- mass density (348.15 K, 33089 kPa): 786.2 ± 0.9 kg/m3
- mass density (348.15 K, 33156 kPa): 786.2 ± 0.9 kg/m3
- mass density (348.15 K, 34089 kPa): 786.8 ± 0.9 kg/m3
- mass density (348.15 K, 35121 kPa): 787.6 ± 0.9 kg/m3
- mass density (348.15 K, 37976 kPa): 789.8 ± 0.9 kg/m3
- mass density (348.15 K, 40028 kPa): 791.3 ± 1 kg/m3
- mass density (348.15 K, 42107 kPa): 792.9 ± 1 kg/m3
- mass density (348.15 K, 44933 kPa): 794.9 ± 1 kg/m3
- mass density (348.15 K, 48043 kPa): 797.1 ± 1 kg/m3
- mass density (348.15 K, 50077 kPa): 798.4 ± 1 kg/m3
- mass density (348.15 K, 52078 kPa): 799.8 ± 1 kg/m3
- mass density (348.15 K, 54947 kPa): 801.7 ± 1 kg/m3
- mass density (348.15 K, 58004 kPa): 803.6 ± 1 kg/m3
- mass density (348.15 K, 60105 kPa): 805.1 ± 1 kg/m3
- mass density (348.15 K, 62134 kPa): 806.4 ± 1 kg/m3
- mass density (348.15 K, 64952 kPa): 808.1 ± 1 kg/m3
- mass density (348.15 K, 66089 kPa): 808.8 ± 1 kg/m3
- mass density (353.15 K, 101 kPa): 749.7 ± 0.8 kg/m3
- mass density (353.15 K, 309 kPa): 749.9 ± 0.8 kg/m3
- mass density (353.15 K, 488 kPa): 750.2 ± 0.8 kg/m3
- mass density (353.15 K, 937 kPa): 750.7 ± 0.8 kg/m3
- mass density (353.15 K, 997 kPa): 750.8 ± 0.8 kg/m3
- mass density (353.15 K, 2036 kPa): 752 ± 0.8 kg/m3
- mass density (353.15 K, 5052 kPa): 755.5 ± 0.8 kg/m3
- mass density (353.15 K, 7035 kPa): 757.6 ± 0.8 kg/m3
- mass density (353.15 K, 8919 kPa): 759.7 ± 0.9 kg/m3
- mass density (353.15 K, 10172 kPa): 761 ± 0.9 kg/m3
- mass density (353.15 K, 14941 kPa): 765.8 ± 0.9 kg/m3
- mass density (353.15 K, 20147 kPa): 770.7 ± 0.9 kg/m3
- mass density (353.15 K, 22188 kPa): 772.6 ± 0.9 kg/m3
- mass density (353.15 K, 25053 kPa): 775.1 ± 0.9 kg/m3
- mass density (353.15 K, 28045 kPa): 777.7 ± 0.9 kg/m3
- mass density (353.15 K, 30122 kPa): 779.4 ± 0.9 kg/m3
- mass density (353.15 K, 31946 kPa): 780.9 ± 0.9 kg/m3
- mass density (353.15 K, 32790 kPa): 781.6 ± 0.9 kg/m3
- mass density (353.15 K, 32795 kPa): 781.5 ± 0.9 kg/m3
- mass density (353.15 K, 34025 kPa): 782.5 ± 0.9 kg/m3
- mass density (353.15 K, 35037 kPa): 783.3 ± 0.9 kg/m3
- mass density (353.15 K, 39961 kPa): 787.1 ± 1 kg/m3
- mass density (353.15 K, 42055 kPa): 788.7 ± 1 kg/m3
- mass density (353.15 K, 45025 kPa): 790.9 ± 1 kg/m3
- mass density (353.15 K, 47906 kPa): 793 ± 1 kg/m3
- mass density (353.15 K, 51988 kPa): 795.8 ± 1 kg/m3
- mass density (353.15 K, 58003 kPa): 799.9 ± 1 kg/m3
- mass density (353.15 K, 62118 kPa): 802.6 ± 1 kg/m3
- mass density (353.15 K, 65015 kPa): 804.4 ± 1 kg/m3
- mass density (353.15 K, 66227 kPa): 805.2 ± 1 kg/m3
- mass density (353.16 K, 2973 kPa): 753.1 ± 0.8 kg/m3
- mass density (353.16 K, 12072 kPa): 762.9 ± 0.9 kg/m3
- mass density (353.16 K, 18090 kPa): 768.8 ± 0.9 kg/m3
- mass density (353.16 K, 38061 kPa): 785.7 ± 0.9 kg/m3
- mass density (353.16 K, 49998 kPa): 794.4 ± 1 kg/m3
- mass density (353.16 K, 54972 kPa): 797.7 ± 1 kg/m3
- mass density (353.16 K, 60035 kPa): 801.2 ± 1 kg/m3
- mass density (358.15 K, 94 kPa): 744.2 ± 0.8 kg/m3
- mass density (358.15 K, 317 kPa): 744.5 ± 0.8 kg/m3
- mass density (358.15 K, 531 kPa): 744.8 ± 0.8 kg/m3
- mass density (358.15 K, 912 kPa): 745.3 ± 0.8 kg/m3
- mass density (358.15 K, 2002 kPa): 746.6 ± 0.8 kg/m3
- mass density (358.15 K, 6978 kPa): 752.5 ± 0.8 kg/m3
- mass density (358.15 K, 8996 kPa): 754.7 ± 0.9 kg/m3
- mass density (358.15 K, 14843 kPa): 760.9 ± 0.9 kg/m3
- mass density (358.15 K, 20099 kPa): 766.2 ± 0.9 kg/m3
- mass density (358.15 K, 22025 kPa): 767.9 ± 0.9 kg/m3
- mass density (358.15 K, 25009 kPa): 770.7 ± 0.9 kg/m3
- mass density (358.15 K, 33055 kPa): 777.5 ± 0.9 kg/m3
- mass density (358.15 K, 33103 kPa): 777.7 ± 0.9 kg/m3
- mass density (358.15 K, 34173 kPa): 778.4 ± 0.9 kg/m3
- mass density (358.15 K, 35154 kPa): 779.2 ± 0.9 kg/m3
- mass density (358.15 K, 38016 kPa): 781.5 ± 1 kg/m3
- mass density (358.15 K, 40036 kPa): 783.1 ± 1 kg/m3
- mass density (358.15 K, 42070 kPa): 784.7 ± 1 kg/m3
- mass density (358.15 K, 44944 kPa): 786.8 ± 1 kg/m3
- mass density (358.15 K, 47921 kPa): 789 ± 1 kg/m3
- mass density (358.15 K, 50038 kPa): 790.5 ± 1 kg/m3
- mass density (358.15 K, 52069 kPa): 792 ± 1 kg/m3
- mass density (358.15 K, 55065 kPa): 794.1 ± 1 kg/m3
- mass density (358.15 K, 58024 kPa): 796.1 ± 1 kg/m3
- mass density (358.15 K, 60060 kPa): 797.4 ± 1 kg/m3
- mass density (358.15 K, 62217 kPa): 798.9 ± 1 kg/m3
- mass density (358.15 K, 65051 kPa): 800.7 ± 1 kg/m3
- mass density (358.15 K, 66079 kPa): 801.3 ± 1.1 kg/m3
- mass density (358.16 K, 997 kPa): 745.3 ± 0.8 kg/m3
- mass density (358.16 K, 2956 kPa): 747.8 ± 0.8 kg/m3
- mass density (358.16 K, 4886 kPa): 750.1 ± 0.8 kg/m3
- mass density (358.16 K, 10124 kPa): 755.9 ± 0.9 kg/m3
- mass density (358.16 K, 11961 kPa): 757.9 ± 0.9 kg/m3
- mass density (358.16 K, 17993 kPa): 764.1 ± 0.9 kg/m3
- mass density (358.16 K, 27942 kPa): 773.3 ± 0.9 kg/m3
- mass density (358.16 K, 30089 kPa): 775.1 ± 0.9 kg/m3
- mass density (358.16 K, 32063 kPa): 776.8 ± 0.9 kg/m3
- mass density (363.15 K, 99 kPa): 738.7 ± 0.8 kg/m3
- mass density (363.15 K, 349 kPa): 739 ± 0.8 kg/m3
- mass density (363.15 K, 512 kPa): 739.3 ± 0.8 kg/m3
- mass density (363.15 K, 910 kPa): 739.8 ± 0.8 kg/m3
- mass density (363.15 K, 3038 kPa): 742.5 ± 0.8 kg/m3
- mass density (363.15 K, 12190 kPa): 753.3 ± 0.9 kg/m3
- mass density (363.15 K, 25101 kPa): 766.2 ± 0.9 kg/m3
- mass density (363.15 K, 30034 kPa): 770.6 ± 0.9 kg/m3
- mass density (363.15 K, 33002 kPa): 773.1 ± 0.9 kg/m3
- mass density (363.15 K, 33042 kPa): 773.2 ± 0.9 kg/m3
- mass density (363.15 K, 34072 kPa): 774 ± 0.9 kg/m3
- mass density (363.15 K, 40041 kPa): 779 ± 1 kg/m3
- mass density (363.15 K, 42237 kPa): 780.7 ± 1 kg/m3
- mass density (363.15 K, 44948 kPa): 782.8 ± 1 kg/m3
- mass density (363.15 K, 48033 kPa): 785.1 ± 1 kg/m3
- mass density (363.15 K, 50015 kPa): 786.6 ± 1 kg/m3
- mass density (363.15 K, 52088 kPa): 788.1 ± 1 kg/m3
- mass density (363.15 K, 55038 kPa): 790.2 ± 1 kg/m3
- mass density (363.15 K, 57996 kPa): 792.2 ± 1 kg/m3
- mass density (363.15 K, 60085 kPa): 793.7 ± 1 kg/m3
- mass density (363.15 K, 62081 kPa): 795 ± 1 kg/m3
- mass density (363.15 K, 65016 kPa): 796.9 ± 1.1 kg/m3
- mass density (363.15 K, 66010 kPa): 797.6 ± 1.1 kg/m3
- mass density (363.16 K, 1038 kPa): 739.9 ± 0.8 kg/m3
- mass density (363.16 K, 2013 kPa): 741.2 ± 0.8 kg/m3
- mass density (363.16 K, 5065 kPa): 745 ± 0.8 kg/m3
- mass density (363.16 K, 7039 kPa): 747.4 ± 0.9 kg/m3
- mass density (363.16 K, 8975 kPa): 749.7 ± 0.9 kg/m3
- mass density (363.16 K, 10001 kPa): 750.8 ± 0.9 kg/m3
- mass density (363.16 K, 14664 kPa): 755.9 ± 0.9 kg/m3
- mass density (363.16 K, 17691 kPa): 759 ± 0.9 kg/m3
- mass density (363.16 K, 20116 kPa): 761.4 ± 0.9 kg/m3
- mass density (363.16 K, 22089 kPa): 763.4 ± 0.9 kg/m3
- mass density (363.16 K, 28014 kPa): 768.8 ± 0.9 kg/m3
- mass density (363.16 K, 32089 kPa): 772.4 ± 0.9 kg/m3
- mass density (363.16 K, 35096 kPa): 775 ± 0.9 kg/m3
- mass density (363.16 K, 37960 kPa): 777.4 ± 1 kg/m3
